PubChem BioAssay (NCI)
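GI50 = concentration required for 50% inhibition of growth. At the TGI there is no net growth.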

Tests used:
Test in all cases: NCI-60 cell line screen, 384-well format
[1] = test system: SK-MEL-5 melanoma
[2] = test system: HOP-92 NSCLC
[3] = test system: HL-60(TB) leukemia
[4] = test system: LOX IMVI melanoma
[5] = test system: MDA-MB-231 breast
[6] = test system: OVCAR-3 ovarian
[7] = test system: SF-268 CNS
[8] = test system: DU-145 prostate
[9] = test system: NCI/ADR-RES ovarian
[10] = test system: IGROV1 ovarian
[11] = test system: TK-10 renal
[12] = test system: MDA-MB-468 breast
[13] = test system: MALME-3M melanoma
[14] = test system: KM12 colon
[15] = test system: BT-549 breast
[16] = test system: A498 renal
[17] = test system: OVCAR-4 ovarian
[18] = test system: CAKI-1 renal
[19] = test system: U251 glioblastoma
[20] = test system: NCI-H322M lung
[21] = test system: UACC-62 melanoma
[22] = test system: K-562 leukemia
[23] = test system: SN12C renal
[24] = test system: T-47D breast
[25] = test system: NCI-H226 lung
[26] = test system: SK-OV-3 ovarian
[27] = test system: SF-539 CNS
[28] = test system: MOLT-4 leukemia
[29] = test system: SK-MEL-2 melanoma
[30] = test system: MDA-MB-435 melanoma
[31] = test system: UACC-257 melanoma
[32] = test system: HT29 colon
[33] = test system: RXF 393 renal
[34] = test system: SW-620 colon
[35] = test system: SR leukemia
[36] = test system: SNB-75 CNS
[37] = test system: HCT-116 colon
[38] = test system: OVCAR-5 ovarian
[39] = test system: A549 NSCLC
[40] = test system: SNB-19 CNS
[41] = test system: SF-295 CNS
[42] = test system: COLO 205 colon
[43] = test system: CCRF-CEM leukemia
[44] = test system: OVCAR-8 ovarian
[45] = test system: PC-3 prostate
[46] = test system: HS 578T breast
[47] = test system: MCF7 breast
[48] = test system: NCI-H23 lung
[49] = test system: 786-0 renal
[50] = test system: HCT-15 colon
[51] = test system: SK-MEL-28 melanoma
[52] = test system: EKVX NSCLC
[53] = test system: NCI-H522 lung
[54] = test system: HCC-2998 colon
[55] = test system: NCI-H460 NSCLC
[56] = test system: ACHN renal
[57] = test system: HOP-62 NSCLC
[58] = test system: M14 melanoma
[59] = test system: RPMI-8226 leukemia

`Cc1cc(-c2ncc(CC(=O)Nc3ccc(-c4cnccn4)cn3)cc2C)ccn1` was tested, and the GI50 [1] was 11.6 µM, the TGI [1] was 27.2 µM and the GI50 [2] was over 100 µM. It also gave a TGI [2] of over 100 µM, a GI50 [3] of 6.52 µM and a TGI [3] of 24.1 µM. For the same compound, the GI50 [4] was 28.4 µM, the TGI [4] was over 100 µM and the GI50 [5] was over 100 µM. It also gave a TGI [5] of over 100 µM, a GI50 [6] of over 86.3 µM and a TGI [6] of over 100 µM. The GI50 [7] was over 100 µM, the TGI [7] was over 100 µM and the GI50 [8] was over 100 µM. It also gave a TGI [8] of over 100 µM, a GI50 [9] of 14.4 µM and a TGI [9] of 47.3 µM. It also gave a GI50 [10] of 56.3 µM, a TGI [10] of over 100 µM and a GI50 [11] of 65.7 µM. The TGI [11] was over 100 µM, the GI50 [12] was 3.43 µM and the TGI [12] was 33.1 µM. For the same compound, the GI50 [13] was over 100 µM, the TGI [13] was over 100 µM and the GI50 [14] was over 82.9 µM. It also gave a TGI [14] of over 100 µM, a GI50 [15] of 32.5 µM and a TGI [15] of over 100 µM. It also gave a GI50 [16] of 68.8 µM, a TGI [16] of over 100 µM and a GI50 [17] of 25.5 µM. The TGI [17] was over 100 µM, the GI50 [18] was 49.3 µM and the TGI [18] was over 100 µM. For the same compound, the GI50 [19] was 48.6 µM, the TGI [19] was over 100 µM and the GI50 [20] was 43 µM. It also gave a TGI [20] of over 100 µM, a GI50 [21] of 56.1 µM and a TGI [21] of over 100 µM. For the same compound, the GI50 [22] was 10.4 µM, the TGI [22] was over 100 µM and the GI50 [23] was 39.2 µM. It also gave a TGI [23] of over 100 µM, a GI50 [24] of 9.51 µM and a TGI [24] of over 52.8 µM. For the same compound, the GI50 [25] was 61.6 µM, the TGI [25] was over 100 µM and the GI50 [26] was over 66 µM. The TGI [26] was over 100 µM, the GI50 [27] was over 57.7 µM and the TGI [27] was over 100 µM. It also gave a GI50 [28] of 12.9 µM, a TGI [28] of 26.2 µM and a GI50 [29] of 42.6 µM. It also gave a TGI [29] of over 100 µM, a GI50 [30] of 38.6 µM and a TGI [30] of over 100 µM. For the same compound, the GI50 [31] was 27.8 µM, the TGI [31] was over 100 µM and the GI50 [32] was 74.5 µM. For the same compound, the TGI [32] was over 100 µM, the GI50 [33] was 21.3 µM and the TGI [33] was over 100 µM. The GI50 [34] was 88.6 µM, the TGI [34] was over 100 µM and the GI50 [35] was 3.81 µM. The TGI [35] was 27.9 µM, the GI50 [36] was over 58.8 µM and the TGI [36] was over 100 µM. It also gave a GI50 [37] of 29 µM, a TGI [37] of over 100 µM and a GI50 [38] of over 100 µM. The TGI [38] was over 100 µM, the GI50 [39] was over 70.5 µM and the TGI [39] was over 100 µM. The GI50 [40] was 64 µM, the TGI [40] was over 100 µM and the GI50 [41] was 49.3 µM. It also gave a TGI [41] of over 100 µM, a GI50 [42] of over 93.6 µM and a TGI [42] of over 100 µM. For the same compound, the GI50 [43] was 12.2 µM, the TGI [43] was 49 µM and the GI50 [44] was 30.3 µM. The TGI [44] was over 100 µM, the GI50 [45] was 51.1 µM and the TGI [45] was over 100 µM. For the same compound, the GI50 [46] was over 100 µM, the TGI [46] was over 100 µM and the GI50 [47] was 27.3 µM. For the same compound, the TGI [47] was over 100 µM, the GI50 [48] was 20.5 µM and the TGI [48] was over 100 µM. For the same compound, the GI50 [49] was 59.5 µM, the TGI [49] was over 100 µM and the GI50 [50] was 57.1 µM. It also gave a TGI [50] of over 100 µM, a GI50 [51] of over 100 µM and a TGI [51] of over 100 µM. For the same compound, the GI50 [52] was 21.8 µM, the TGI [52] was over 100 µM and the GI50 [53] was 31.5 µM. The TGI [53] was over 100 µM, the GI50 [54] was over 88.8 µM and the TGI [54] was over 100 µM. The GI50 [55] was 28.6 µM, the TGI [55] was over 100 µM and the GI50 [56] was 64.4 µM. The TGI [56] was over 100 µM, the GI50 [57] was 39.7 µM and the TGI [57] was over 100 µM. The GI50 [58] was over 100 µM, the TGI [58] was over 100 µM and the GI50 [59] was 13.8 µM. The TGI [59] was 34.7 µM.
